Experimental data from US20240270731A1, “[…]” (ALEBUND PHARMACEUTICALS (HONG KONG) LIMITED, priority 2021, published 2024).

Columns and labels:
[1] = system: rat model of hyperlipidemia induced by high cholesterol diet; test: Rat model of hyperlipidemia induced by high cholesterol diet (serum TG, NEFA); format: in vivo, Sprague-Dawley rats; conditions: for Serum TG and NEFA levels compared with the vehicle group: Day 8, both 0.2 mg/kg and 0.6 mg/kg; for Serum TG / Serum NEFA: mean ± SD, n=6
From the text: On the day before the start of the administration (Day 0), the animals were divided into 7 groups based on body weights and serum indicators and were continually fed with the high-cholesterol diet. The treatment groups were orally dosed with either compound or vehicle while continuing the high-cholesterol diet for a total of 1 week. The animals were weighed daily before the treatment, and the compounds were given at 9:00-9:30 in the morning based on the body weight of the day.

[2] = system: db/db type 2 diabetes model; test: Pharmacodynamics study on the db/db type 2 diabetes model; conditions: for Serum TG levels compared with the vehicle group: Day 6 and Day 12, Compound 2 at different dosages; for Statistical difference (p) of the blood glucose level between OGTT treatment group and vehicle group: 0.2 mpk
From the text: 45 db/db mice were evenly divided into 5 groups before the initiation of treatment based on the body weights, serum triglyceride (TG) levels, and random blood glucose levels.
All animals were weighed daily before each dosing and treated daily for 14 consecutive days.
All the data was imported into an Excel file and presented as Mean±SEM. Graphpad Prism 7.0 software was used for data statistical analysis by One-way or Two-way ANOVA, with P<0.05 as the criterion of significant differences.

[3] = system: rat model of unilateral ureteral obstruction; test: Renal injury in rat model of unilateral ureteral obstruction; conditions: 0.2 mg/kg oral daily, 14 treatment days
Protocol: Housing temperature was maintained at 20-26° C. and humidity at 40%-60%. Rats were fed with a standard chow and allowed to access food and water ad libitum.
The formulation was prepared twice a week.
Vehicle or compounds were administrated by orally gavage daily. Unilateral ureteral obstruction was performed on the second day of compound treatment. Animals in model group, reference group and compound group underwent urethral ligation under isoflurane anesthesia one hour after receiving compound administration. A flank incision was cut to expose the left ureter, and a 4-0 surgical suture was used to perform two-point ligation to achieve urethral obstruction. Ureter was cut between the two ligation points. Animals in the control group were subjected to the same surgical treatment except the ligation and cut.
Rats were sacrificed after 14 days' compound treatment. The obstructed kidney was weighed and collected for histology. The tissue samples were fixed with formalin, and then paraffin embedded. The embedded tissue was sectioned and stained with hematoxylin & eosin and Masson trichrome to assess kidney structure and fibrosis.
The multiple comparison was analyzed with the Kruskal-Wallis non-parameter test. The Dunn's test was used to compare the difference to the model group.

[4] = system: uninephrectomied db/db mice; test: Diabetic nephropathy pharmacodynamic model (uninephrectomied db/db mice)
Protocol: Housing temperature was maintained at 22-26° C. and humidity at 40%-60%. Mice were allowed to access food and water ad libitum. […] Buprenorphine was applied after surgery.
Two weeks after surgery, db/db mice were randomly assigned into 5 groups. Wild type mice were used for the control animals. […] Compounds were orally administrated once per day for 10 weeks.
At the 5th and 9th week after compound administration, mice were placed in metabolic cages for urine collection. Albumin level was measured for 24 hr albumin excretion calculation. At the 10th week after treatment, the animals were sacrificed for kidney dissection. The kidney was fixed in 10% neutral buffed formalin, then paraffin-embedded for histopathological analysis. Glomerulosclerosis was assessed by evaluating glomerular basement membrane, mesangial expansion, nodular sclerosis and glomerulosclerosis.
Graphpad 8.0 software was used for statistical analysis. The difference between the values were analyzed with one-way ANOVA. The difference between histopathological score was analyzed with Kruskal-Wallis nonparameter test.

[5] = 7-day repeated oral gavage, body weights of ICR mice; format: in vivo; conditions: for Weight Gain compared with Day 0: n=10
From the text: After 3 days of acclimatization, ICR mice were grouped according to their body weights. The day of grouping is designated as Day 0. […] The animals were weighed and recorded daily.

[6] = Day 8, 0.2 mg/kg oral QD x 7 days
[7] = Day 8, 0.6 mg/kg oral QD x 7 days

## CO[C@@H](Cc1ccc(OCCc2nc(-c3ccccc3)oc2C)c2ccsc12)C(=O)O (single isomer, unassigned) [Compound 2]
[1]; 0.2 mg/kg, T-test, P<0.05
  Serum NEFA compared with Aleglitazar: significantly reduce
  Serum TG compared with Aleglitazar: significantly reduce
[1]
  Serum TG and NEFA levels compared with the vehicle group: significantly reduce
[2]; 0.05 mg/kg, all time points
  OGTT blood glucose compared with the vehicle group: did not reach statistical significance
[2]; Aleglitazar 0.2 mg/kg
  Serum TG levels compared with the vehicle group: significantly lower
[2]; random blood glucose, Day 7 and Day 14
  Effect on lowering blood glucose compared with Aleglitazar: slightly weaker effect
[2]; same dose level (0.2 mg/kg)
  OGTT AUC0-120min compared with Aleglitazar: higher
[3]
  Total score of renal focal lesions (infract, tubular dilation, tubular obstruction, fibrosis, necrosis) compared with model group: significantly improved
[4]; 5th and 9th weeks after compound administration, 0.1, 0.3, 1 mg/kg oral once per day
  24-hour urinary albumin compared with vehicle: significantly decreased
[4]; all dosage levels (0.1, 0.3, 1 mg/kg), 10 weeks
  Renal tubular injury (histopathology): improved the tubular injury at some extend
[4]; high dose (1 mg/kg), 10 weeks
  Glomerulosclerosis histopathological score and glomerular volume: statistically significantly reduced

## CO[C@@H](Cc1ccc(OCCc2nc(-c3ccccc3)oc2C)c2ccsc12)C(=O)O [Aleglitazar, aleglitazar, reference compound]
[1]; Day 0 (day before treatment), group later dosed 0.2 mg/kg oral QD x 7 days
  Serum TG: 4.24 ± 1.18 mmol/L
[1]; Day 0 (day before treatment), group later dosed 0.6 mg/kg oral QD x 7 days
  Serum TG: 4.09 ± 2.17 mmol/L
[1]; [6]
  Serum NEFA: 706.00 ± 190.15 µmol/L
  Serum TG: 2.86 ± 0.86 mmol/L
[1]; [7]
  Serum NEFA: 327.83 ± 90.73 µmol/L
  Serum TG: 1.47 ± 0.46 mmol/L
[1]
  Serum TG and NEFA levels compared with the vehicle group: significantly reduce
[5]; 0.2 mg/kg (Aleglitazar: Day 4 and Day 5; Compound 2: throughout the study)
  Daily average weight gain compared with the vehicle group: significantly higher
[5]; 1 mg/kg (Aleglitazar: Day 6; Compound 2: Day 4 and 5; Compounds 4 and 10: Day 4 to Day 7)
  Daily average weight gain compared with the vehicle group: significantly higher
[5]; Day 1, 0.2 mg/kg oral QD
  Weight Gain compared with Day 0: 0.48 ± 0.27 g
[5]; Day 2, 0.2 mg/kg oral QD
  Weight Gain compared with Day 0: 1.66 ± 0.39 g
[5]; Day 2, 1 mg/kg oral QD
  Weight Gain compared with Day 0: 1.64 ± 0.26 g
[5]; Day 3, 0.2 mg/kg oral QD
  Weight Gain compared with Day 0: 2.62 ± 0.42 g
[5]; Day 3, 1 mg/kg oral QD
  Weight Gain compared with Day 0: 2.61 ± 0.51 g
[5]; Day 4, 0.2 mg/kg oral QD
  Weight Gain compared with Day 0: 3.50 ± 0.42 g
[5]; Day 4, 1 mg/kg oral QD
  Weight Gain compared with Day 0: 3.33 ± 0.54 g
[5]; Day 5, 0.2 mg/kg oral QD
  Weight Gain compared with Day 0: 3.92 ± 0.4 g
[5]; Day 5, 1 mg/kg oral QD
  Weight Gain compared with Day 0: 3.86 ± 0.49 g
[5]; Day 6, 0.2 mg/kg oral QD
  Weight Gain compared with Day 0: 4.81 ± 0.37 g
[5]; Day 6, 1 mg/kg oral QD
  Weight Gain compared with Day 0: 4.98 ± 0.52 g
[5]; Day 7, 0.2 mg/kg oral QD
  Weight Gain compared with Day 0: 5.39 ± 0.56 g
[5]; Day 7, 1 mg/kg oral QD
  Weight Gain compared with Day 0: 5.34 ± 0.50 g
[2]; Aleglitazar 0.2 mg/kg
  Serum TG levels compared with the vehicle group: significantly lower
[2]; Day 10 to Day 15, Aleglitazar 0.2 mg/kg, Compound 2 0.05, 0.2, 1 mg/kg
  Average daily body weights compared with the vehicle group: significantly higher
[2]; OGTT Day 14, 0 min
  Statistical difference (p) of the blood glucose level between OGTT treatment group and vehicle group: p < 0.001
[2]; OGTT Day 14, 15 min
  Statistical difference (p) of the blood glucose level between OGTT treatment group and vehicle group: p < 0.01
[2]; OGTT Day 14, 30 min
  Statistical difference (p) of the blood glucose level between OGTT treatment group and vehicle group: p > 0.05
[2]; OGTT Day 14, 60 min
  Statistical difference (p) of the blood glucose level between OGTT treatment group and vehicle group: p < 0.01
[2]; OGTT Day 14, 120 min
  Statistical difference (p) of the blood glucose level between OGTT treatment group and vehicle group: p < 0.01
[2]; random blood glucose, Day 0, 0.2 mpk
  Statistical difference (p) of the blood glucose level between treatment group and vehicle group: p > 0.05
[2]; random blood glucose, Day 7, 0.2 mpk
  Statistical difference (p) of the blood glucose level between treatment group and vehicle group: p < 0.05
[2]; random blood glucose, Day 14, 0.2 mpk
  Statistical difference (p) of the blood glucose level between treatment group and vehicle group: p < 0.01
[3]
  Total score of renal focal lesions (infract, tubular dilation, tubular obstruction, fibrosis, necrosis) compared with model group: did not achieve statistically significant improvement
